Tests used:
[1] = dog, in vivo, po
Procedure: The following compositions comprising compound I were prepared and the bioavailability of each composition was determined in fasted dogs.
Dogs (beagle dogs, mixed sexes, weighing about 10 kg) were fasted for at least 12 hours before dosing. Food was returned after the last blood sample was collected (24 hours). Water was available at all times.
A dose equivalent to 50 or 100 milligrams of compound I was administered by mouth to each dog, followed with either 20 or 50 ml of water through a feeding tube.
Blood samples were collected at the following times: 0, 0.5, 1, 2, 3, 4, 6, 8, 12 and 24 hours. Blood samples of 3 ml volume were anti-coagulated with EDTA. The plasma was separated by centrifugation and frozen until analyzed. Blood plasma concentrations of compound I were determined by HPLC.
Bioavailability was calculated as follows: % Bioavailability=[(AUC)oral×D/(AUC) intravenous]×100. (AUC)oral and (AUC) intravenous are the areas under the curve for the plasma concentration-time profiles following oral and intravenous administration, respectively. D is defined as the intravenous vs. oral DOSE ratio. In particular, D=(DOSE)iv/DOSE)oral. The intravenous dose was 3.0 mg/kg and oral dose was about 5.0 mg/kg or about 10.0 mg/kg. The (AUC) intravenous value used corresponds to the mean value from a separate group of 6 dogs.

salt depleted dogs = experiment: Blood pressure in salt depleted dogs after oral or intravenous administration; type: in vivo

CC(C)C[C@H](O)[C@H](O)[C@H](CC1CCCCC1)NC(=O)[C@H](Cc1cscn1)NC(=O)[C@H](Cc1ccccc1)CS(=O)(=O)N1CCN(C)CC1 [compound I, (2S)-2-Benzyl-3-(1-methyl-piperazin-4-ylsulfonyl)propionyl-(L)-(4-Thiazolyl)Ala Amide of (2S, 3R, 4S)-2-Amino-1-cyclohexyl-3,4-dihydroxy-6-methylheptane]
times more bioavailable orally as a tablet with organic polycarboxylic acid compared to tablet or powder filled capsule without the acid [1]: ≤ 7.8 times
effect on blood pressure (salt depleted dogs): reduces blood pressure
